These are literature values, as cited in paper PMC11286589, “Population pharmacokinetics and exposure–response analyses of SAF-189s in Chinese patients with ALK+/ROS1+ non-small cell lung cancer” (Frontiers in Pharmacology, 2024).

For this data set the following is noted: cited from earlier work.

In the case of `Cc1cc(Nc2ncc(Cl)c(Nc3ccccc3S(=O)(=O)C(C)C)n2)c(OC(C)C)cc1C1CCNCC1` [ceritinib], the “incidence rate of hyperglycemia” value (FIH trial, ref Khozin et al., 2015) is given as 49%. Regarding `C[C@@H](Oc1cc(-c2cnn(C3CCNCC3)c2)cnc1N)c1c(Cl)ccc(F)c1Cl` [crizotinib], for the setting “current clinical use, ref Camidge et al., 2018, Seto et al., 2019, Wolf et al., 2022”, the “effect on glucose tolerance in patients” value is “no effects on glucose tolerance”.
